Test results: article PMC9603373 (Microbiology Spectrum, 2022)
Marks after values point to notes of the source that are not given here.

Legend:
[1] = tested on: daptomycin-susceptible, dose-dependent Enterococcus faecium (NTUH664); assay: Rat infective endocarditis model, DSE; conditions: for Bacterial load in blood / Rate of sterile vegetation / Bacterial load of vegetation: Wistar rat IE, DSE MIC 0.5 mg/L; for Bacterial load in blood / Bacterial load of vegetation: mean (SD); for Bacterial load in blood / Rate of sterile vegetation: n = 3; for Bacterial load of vegetation: sacrifice 24 h after last dose, n = 3, detection limit 2 log10 CFU/g; for veg_sterile: flag 1/0;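 for all read-outs here: male Wistar rats with catheter-induced aortic valve endocarditis, dosed for 3 days, CFU counted in vegetation and blood, saline-treated infected controls, vegetation detection limit 2 log10 CFU/g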
Procedure: Approval for animal use was obtained from the National Taiwan University Institutional Animal Care and Use Committee before the commencement of the experiments. Endocarditis was induced in male Wistar rats weighing ~330 g by using previously developed methodologies with slight modifications ([46]). To expose the right carotid artery for the placement of an intravascular catheter, the animals were anesthetized with 1 μL/g of Zoletil 50 (1 mg/mL) plus Rompun (23.32 mg/mL). A sterile polyethylene catheter (Intramedic PE-10; Clay Adams, Parsippany, NJ, USA) was inserted through a small incision and advanced 4 cm into the left ventricle. The catheter was ligated and left in place for the duration of the experiment. 24 h after the catheter was placed across the aortic valve, the bacterial inoculum, which was presuspended in saline, and 1 mL of 10^8 CFU/mL of VRE were administered intravenously via the tail vein. We evaluated the actual inoculum based on the CFU count. The rats received antibiotic treatment at 24 h or 48 h after the bacterial inoculation.
The animals were treated for 3 days. A group of infected but phosphate-buffered saline-treated rats was used as a control. 24 h after the last treatment, the animals were sacrificed via anesthetic overdose. The aortic valve vegetation and 1 mL of blood were obtained aseptically from the sacrificed animals, weighed, and homogenized in 1 mL of phosphate-buffered saline. Serial dilutions of homogenized tissues were performed, and 100 μL of each dilution, including the undiluted sample, were plated on brain heart infusion agar to enumerate the bacteria. The animals were included in the final analysis only if they survived the entire therapy and if their catheters were found across the aortic valve in the left ventricle. The detection limit of the bacterial load of vegetation was 2 log10 CFU/g.

[2] = tested on: vancomycin-resistant Enterococcus faecium isolate NTUH688 (DNSE); assay type: cell-based; conditions: broth microdilution, cation-adjusted Mueller-Hinton broth + 50 μg/mL calcium
Procedure: (§1) Blood culture isolates were obtained from a clinical microbiology laboratory. Enterococcus spp. were identified using the Vitek 2 identification system (bioMérieux Inc., La Balme les Grottes, France). The MIC of vancomycin was determined using a Sensititre GPN3F (Trek Diagnostics, West Sussex, England). […] We used cation-adjusted Mueller-Hinton broth (Becton, Dickinson, Le Pont-de-Claix, France) supplemented with 50 μg/mL calcium. The MIC breakpoints were based on the CLSI criteria of interpretation ([15]).

[3] = tested on: vancomycin-resistant Enterococcus faecium isolate NTUH664 (DSE); assay type: cell-based; conditions: broth microdilution, cation-adjusted Mueller-Hinton broth + 50 μg/mL calcium
Procedure: as §1

[4] = DSE MIC 0.5, delay 24 h, 12 mg/kg iv, rat 1 of 3 (row order)
[5] = DSE MIC 0.5, delay 24 h, 12 mg/kg iv, rat 2 of 3 (row order)
[6] = DSE MIC 0.5, delay 24 h, 12 mg/kg iv, rat 3 of 3 (row order)
[7] = DSE MIC 0.5, delay 24 h, 45 mg/kg sc, rat 1 of 3 (row order)
[8] = DSE MIC 0.5, delay 24 h, 45 mg/kg sc, rat 2 of 3 (row order)
[9] = DSE MIC 0.5, delay 24 h, 45 mg/kg sc, rat 3 of 3 (row order)
[10] = DSE MIC 0.5, delay 24 h, 90 mg/kg sc, rat 1 of 3 (row order)
[11] = DSE MIC 0.5, delay 24 h, 90 mg/kg sc, rat 2 of 3 (row order)
[12] = DSE MIC 0.5, delay 24 h, 90 mg/kg sc, rat 3 of 3 (row order)
[13] = DSE MIC 0.5, delay 48 h, 12 mg/kg iv, rat 1 of 3 (row order)
[14] = DSE MIC 0.5, delay 48 h, 12 mg/kg iv, rat 2 of 3 (row order)
[15] = DSE MIC 0.5, delay 48 h, 12 mg/kg iv, rat 3 of 3 (row order)
[16] = DSE MIC 0.5, delay 48 h, 45 mg/kg sc, rat 1 of 3 (row order)
[17] = DSE MIC 0.5, delay 48 h, 45 mg/kg sc, rat 2 of 3 (row order)
[18] = DSE MIC 0.5, delay 48 h, 45 mg/kg sc, rat 3 of 3 (row order)
[19] = DSE MIC 0.5, delay 48 h, 90 mg/kg sc, rat 1 of 3 (row order)
[20] = DSE MIC 0.5, delay 48 h, 90 mg/kg sc, rat 2 of 3 (row order)
[21] = DSE MIC 0.5, delay 48 h, 90 mg/kg sc, rat 3 of 3 (row order)
[22] = 48 h from inoculation to treatment, 12 mg/kg/day i.v. 3 days, SD
[23] = 48 h from inoculation to treatment, 45 mg/kg/day s.c. 3 days, SD

## CCCCCCCCCC(=O)N[C@@H](Cc1c[nH]c2ccccc12)C(=O)N[C@H](CC(N)=O)C(=O)N[C@@H](CC(=O)O)C(=O)N[C@@H]1C(=O)NCC(=O)N[C@@H](CCCN)C(=O)N[C@@H](CC(=O)O)C(=O)N[C@H](C)C(=O)N[C@@H](CC(=O)O)C(=O)NCC(=O)N[C@H](CO)C(=O)N[C@@H]([C@H](C)CC(=O)O)C(=O)N[C@@H](CC(=O)c2ccccc2N)C(=O)O[C@@H]1C [daptomycin, Daptomycin]
[1]; [4]
  blood_cfu: 0
  log_blood_cfu: 0
  log_veg_cfu: 0
  veg_cfu: 0
[1]; [5]
  blood_cfu: 0
  log_blood_cfu: 0
  log_veg_cfu: 0
  veg_cfu: 0
  veg_sterile: 1
[1]; [6]
  blood_cfu: 0
  log_blood_cfu: 0
  log_veg_cfu: 0
  veg_cfu: 0
  veg_sterile: 1
[1]; [7]
  blood_cfu: 0
  log_blood_cfu: 0
  log_veg_cfu: 0
  veg_cfu: 0
  veg_sterile: 1
[1]; [8]
  blood_cfu: 0
  log_blood_cfu: 0
  log_veg_cfu: 0
  veg_cfu: 0
  veg_sterile: 1
[1]; [9]
  blood_cfu: 0
  log_blood_cfu: 0
  log_veg_cfu: 0
  veg_cfu: 0
  veg_sterile: 1
[1]; [10]
  blood_cfu: 0
  log_blood_cfu: 0
  log_veg_cfu: 0
  veg_cfu: 0
  veg_sterile: 1
[1]; [11]
  blood_cfu: 0
  log_blood_cfu: 0
  log_veg_cfu: 0
  veg_cfu: 0
  veg_sterile: 1
[1]; [12]
  blood_cfu: 0
  log_blood_cfu: 0
  log_veg_cfu: 0
  veg_cfu: 0
  veg_sterile: 1
[1]; [13]
  blood_cfu: 0
  log_blood_cfu: 0
  log_veg_cfu: 3.4
  veg_cfu: 2500
  veg_sterile: 0
[1]; [14]
  blood_cfu: 0
  log_blood_cfu: 0
  log_veg_cfu: 3.26
  veg_cfu: 1800
  veg_sterile: 0
[1]; [15]
  blood_cfu: 0
  log_blood_cfu: 0
  log_veg_cfu: 3.17
  veg_cfu: 1480
  veg_sterile: 0
[1]; [16]
  blood_cfu: 0
  log_blood_cfu: 0
  log_veg_cfu: 4.66
  veg_cfu: 45600
  veg_sterile: 0
[1]; [17]
  blood_cfu: 0
  log_blood_cfu: 0
  log_veg_cfu: 4.38
  veg_cfu: 23900
  veg_sterile: 0
[1]; [18]
  blood_cfu: 0
  log_blood_cfu: 0
  log_veg_cfu: 0
  veg_cfu: 0
  veg_sterile: 1
[1]; [19]
  blood_cfu: 0
  log_blood_cfu: 0
  log_veg_cfu: 0
  veg_cfu: 0
  veg_sterile: 1
[1]; [20]
  blood_cfu: 0
  log_blood_cfu: 0
  log_veg_cfu: 0
  veg_cfu: 0
  veg_sterile: 1
[1]; [21]
  blood_cfu: 0
  log_blood_cfu: 0
  log_veg_cfu: 0
  veg_cfu: 0
  veg_sterile: 1
[1]; 24 h from inoculation to treatment, 12 mg/kg/day i.v. 3 days, SD
  Bacterial load in blood: 0 (0) log10 CFU/mL
[1]; 24 h from inoculation to treatment, 12 mg/kg/day i.v. 3 days
  Rate of sterile vegetation: 100
[1]; 24 h from inoculation to treatment, 45 mg/kg/day s.c. 3 days, SD
  Bacterial load in blood: 0 (0) log10 CFU/mL
[1]; 24 h from inoculation to treatment, 45 mg/kg/day s.c. 3 days
  Rate of sterile vegetation: 100
[1]; 24 h from inoculation to treatment, 90 mg/kg/day s.c. 3 days, SD
  Bacterial load in blood: 0 (0) log10 CFU/mL
[1]; 24 h from inoculation to treatment, 90 mg/kg/day s.c. 3 days
  Rate of sterile vegetation: 100
[1]; [22]
  Bacterial load in blood: 0 (0) log10 CFU/mL
  Bacterial load of vegetation: 3.27 (0.11) log10 CFU/g
[1]; 48 h from inoculation to treatment, 12 mg/kg/day i.v. 3 days
  Rate of sterile vegetation: 0
[1]; [23]
  Bacterial load in blood: 0 (0) log10 CFU/mL
  Bacterial load of vegetation: 4.75 (0.42)^g log10 CFU/g
[1]; 48 h from inoculation to treatment, 45 mg/kg/day s.c. 3 days
  Rate of sterile vegetation: 0
[1]; 48 h from inoculation to treatment, 90 mg/kg/day s.c. 3 days, SD
  Bacterial load in blood: 0 (0) log10 CFU/mL
[1]; 48 h from inoculation to treatment, 90 mg/kg/day s.c. 3 days
  Rate of sterile vegetation: 100
[1]; 48 h from inoculation to treatment, 90 mg/kg/day s.c. 3 days, 90 mg/kg/day
  Bacterial load of vegetation: 0 log10 CFU/g
[1]; 48 h from inoculation to treatment, 90 mg/kg/day s.c. 3 days, 90 mg/kg/day, SD
  Bacterial load of vegetation: 0 (0)^h^,^i log10 CFU/g
[2]
  daptomycin MIC: 8 µg/mL
[3]
  daptomycin MIC: 0.5 µg/mL
